This test concerns L1210 leukemia ip in BDF1 mice, survival T/C. As to the kind of experiment: NCI In Vivo Anticancer Drug Screen. Data for tumor model L1210 Leukemia (intraperitoneal) in B6D2F1 (BDF1) mice. The conditions noted are these: endpoint: mean survival time, higher = longer survival. The procedure, abridged:
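Transplantable tumor model; survival measured in treated vs vehicle control mice. Value = treated/control.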

Where [1] appears, read: dose: 100.0 mg/kg/injection, schedule: Q01DX009 (ip), vehicle: Klucel (hydroxypropylcellulose) (HPC).
The mark [2] stands for this setting: dose: 200.0 mg/kg/injection, schedule: Q01DX009 (ip), vehicle: Klucel (hydroxypropylcellulose) (HPC).
Where [3] appears, read: dose: 400.0 mg/kg/injection, schedule: Q01DX009 (ip), vehicle: Klucel (hydroxypropylcellulose) (HPC).
[4] abbreviates: dose: 100.0 mg/kg/injection, schedule: Q04DX003 (ip), vehicle: Klucel (hydroxypropylcellulose) (HPC).
Where [5] appears, read: dose: 200.0 mg/kg/injection, schedule: Q04DX003 (ip), vehicle: Klucel (hydroxypropylcellulose) (HPC).
Setting [6] is: dose: 400.0 mg/kg/injection, schedule: Q04DX003 (ip), vehicle: Klucel (hydroxypropylcellulose) (HPC).
The mark [7] stands for this setting: dose: 5.0 mg/kg/injection, schedule: Q01DX001 (ip), vehicle: saline.
Where [8] appears, read: dose: 10.0 mg/kg/injection, schedule: Q01DX001 (ip), vehicle: saline.
The mark [9] stands for this setting: dose: 20.0 mg/kg/injection, schedule: Q01DX001 (ip), vehicle: saline.
[10] abbreviates: dose: 40.0 mg/kg/injection, schedule: Q01DX001 (ip), vehicle: saline.
The mark [11] stands for this setting: dose: 100.0 mg/kg/injection, schedule: Q04DX003 (ip), vehicle: saline with Tween-80.
Where [12] appears, read: dose: 400.0 mg/kg/injection, schedule: Q04DX003 (ip), vehicle: saline with Tween-80.
Where [13] appears, read: dose: 10.0 mg/kg/injection, schedule: Q01DX009 (ip), vehicle: saline.
Where [14] appears, read: dose: 20.0 mg/kg/injection, schedule: Q01DX009 (ip), vehicle: saline.
The mark [15] stands for this setting: dose: 100.0 mg/kg/injection, schedule: Q01DX001 (ip), vehicle: carboxymethylcellulose (CMC).
[16] abbreviates: dose: 200.0 mg/kg/injection, schedule: Q01DX001 (ip), vehicle: carboxymethylcellulose (CMC).
Setting [17] is: dose: 400.0 mg/kg/injection, schedule: Q01DX001 (ip), vehicle: carboxymethylcellulose (CMC).
Where [18] appears, read: dose: 12.5 mg/kg/injection, schedule: Q01DX009 (ip), vehicle: saline.
Where [19] appears, read: dose: 25.0 mg/kg/injection, schedule: Q01DX009 (ip), vehicle: saline.
[20] abbreviates: dose: 100.0 mg/kg/injection, schedule: Q04DX003 (ip), vehicle: saline.

“And” between values parts separate entries of the source, which are not always exact repeats. Identical values can stand only once. Toxic doses and inconclusive results are not listed.

`O=C1CCC(c2cccc([N+](=O)[O-])c2)=NN1`: the T/C under setting [1] was 89 % of control, the T/C under setting [2] was 93 % of control and the T/C under setting [3] is 89 % of control.

For the compound `Cc1c(Cl)c(Cl)c(C)c(Cl)c1Cl`, the T/C was 86 % of control under setting [1]; 95 % of control under setting [4]; 89 % of control under setting [2]; 101 % of control under setting [5]; 87 % of control under setting [3]; 93 % of control under setting [6].

`Cc1ccc2c(ccc3c[n+]4c5ccccc5ccc4n32)c1`: the T/C by setting is: under setting [7], 97 % of control; under setting [8], 100 % of control; under setting [9], 101 % of control; under setting [10], 117 % of control.

With `NC(=S)N/N=C/c1ccc(OC(=O)COc2ccccc2Cl)cn1`, the T/C is, setting by setting: under setting [11], 124 % of control; under setting [12], 93 % of control.

Take `N#Cc1ccc(OCCCOc2ccc([N+](=O)[O-])cc2)cc1`: the T/C is 106 % of control under setting [4], 100 % of control under setting [5] and 103 % of control under setting [6].

As to `C#CC(OC(=O)N(C)C)(c1ccccc1)c1ccc(F)cc1` (stereo not drawn), the T/C was 108 % of control under setting [7], 105 % of control under setting [8], 109 % of control under setting [9] and 117 % of control under setting [10].

For `COc1cc2cc3cc4cc(OC)c(OC)cc4c(C)[n+]3cc2cc1OC` (tested in a mixture with another compound), the T/C is 106 % of control (dose: 2.5 mg/kg/injection, schedule: Q01DX009 (ip), vehicle: saline); 108 % of control and 118 % of control (dose: 5.0 mg/kg/injection, schedule: Q01DX009 (ip), vehicle: saline); 108 % of control under setting [13]; 104 % of control under setting [14]; 110 % of control and 111 % of control (dose: 40.0 mg/kg/injection, schedule: Q01DX009 (ip), vehicle: saline); 92 % of control (dose: 80.0 mg/kg/injection, schedule: Q01DX009 (ip), vehicle: saline).

Turning to `Cc1ccc(NC(=O)Nc2c(C)cccc2C)cc1`, the T/C runs as follows: under setting [15], 95 % of control; under setting [16], 95 % of control; under setting [17], 103 % of control.

Turning to `Nc1nc([Se])c2ncn(C3OC(CO)C(O)C3O)c2n1` (stereo not drawn), the T/C is, setting by setting: under setting [13], 179 % of control; under setting [18], 208 % of control and 213 % of control; under setting [14], 182 % of control; under setting [19], 201 % of control and 229 % of control; (dose: 50.0 mg/kg/injection, schedule: Q01DX009 (ip), vehicle: saline) 91 % of control.

As to `COc1ccc2c(c1O)C1(CCN(C)C)CC(=O)CCC1C=C2` (stereo not drawn), the T/C is, setting by setting: (dose: 75.0 mg/kg/injection, schedule: Q01DX001 (ip), vehicle: saline) 96 % of control; (dose: 150.0 mg/kg/injection, schedule: Q01DX001 (ip), vehicle: saline) 100 % of control; (dose: 300.0 mg/kg/injection, schedule: Q01DX001 (ip), vehicle: saline) 89 % of control.

On to `CCN(CC)C(=S)c1ccc(C(=S)N(CC)CC)cc1`, for which the T/C by setting is: under setting [4], 91 % of control; under setting [5], 93 % of control; under setting [6], 93 % of control.

On to `Clc1ccccc1/C=C/c1ccccn1`, for which the T/C (dose: 6.25 mg/kg/injection, schedule: Q04DX002 (ip), vehicle: DMSO) is 102 % of control; the T/C (dose: 12.5 mg/kg/injection, schedule: Q04DX002 (ip), vehicle: DMSO) is 98 % of control; the T/C (dose: 25.0 mg/kg/injection, schedule: Q04DX002 (ip), vehicle: DMSO) is 109 % of control; the T/C (dose: 100.0 mg/kg/injection, schedule: Q04DX002 (ip), vehicle: DMSO) is 94 % of control.

Regarding `CCC(CO)NC1CCCCC1` (stereo not drawn), the T/C (dose: 75.0 mg/kg/injection, schedule: Q01DX001 (ip), vehicle: carboxymethylcellulose (CMC)) was 88 % of control.

With `O=C(C[n+]1ccccc1)c1ccc(S(=O)(=O)c2ccccc2)cc1`, the T/C reads like this: (dose: 12.5 mg/kg/injection, schedule: Q04DX003 (ip), vehicle: Klucel (hydroxypropylcellulose) (HPC)) 95 % of control; (dose: 25.0 mg/kg/injection, schedule: Q04DX003 (ip), vehicle: Klucel (hydroxypropylcellulose) (HPC)) 93 % of control; (dose: 50.0 mg/kg/injection, schedule: Q04DX003 (ip), vehicle: Klucel (hydroxypropylcellulose) (HPC)) 89 % of control; under setting [4], 94 % of control.

As for `CC(C)(C)C1CC[N-]CC1.CC(C)(C)C1CC[N-]CC1.[Cl][Pt+2]([Cl])([Cl])[Cl]`, the T/C reads like this: under setting [18], 96 % of control; (dose: 12.5 mg/kg/injection, schedule: Q04DX003 (ip), vehicle: saline) 97 % of control; under setting [19], 92 % of control; (dose: 25.0 mg/kg/injection, schedule: Q04DX003 (ip), vehicle: saline) 90 % of control; (dose: 50.0 mg/kg/injection, schedule: Q04DX003 (ip), vehicle: saline) 93 % of control and 99 % of control; under setting [20], 94 % of control and 97 % of control.

`COc1cc(C(N)=O)cc(OC)c1O`: the T/C is 92 % of control (dose: 100.0 mg/kg/injection, schedule: Q01DX009 (ip), vehicle: saline); 97 % of control under setting [20]; 103 % of control (dose: 200.0 mg/kg/injection, schedule: Q01DX009 (ip), vehicle: saline); 108 % of control (dose: 200.0 mg/kg/injection, schedule: Q04DX003 (ip), vehicle: saline); 113 % of control (dose: 400.0 mg/kg/injection, schedule: Q01DX009 (ip), vehicle: saline); 100 % of control (dose: 400.0 mg/kg/injection, schedule: Q04DX003 (ip), vehicle: saline).

As for `NC1CCS(=O)(=O)CC1`, the T/C is 93 % of control (dose: 100.0 mg/kg/injection, schedule: Q01DX001 (ip), vehicle: water); 101 % of control (dose: 200.0 mg/kg/injection, schedule: Q01DX001 (ip), vehicle: water); 104 % of control (dose: 400.0 mg/kg/injection, schedule: Q01DX001 (ip), vehicle: water).

On to `CCCCCCCCCCCCCCCCS(=O)(=O)Nc1cc(C(=O)NN)cc(C(=O)NN)c1`, for which the T/C is 90 % of control under setting [11]; 86 % of control (dose: 200.0 mg/kg/injection, schedule: Q04DX003 (ip), vehicle: saline with Tween-80); 88 % of control under setting [12].

`COc1ccc2c(c1)CC/C(=C\c1ccc(OCCN3CCCC3)cc1)C2=O`: the T/C (dose: 12.5 mg/kg/injection, schedule: Q04DX003 (ip), vehicle: saline with Tween-80) is 105 % of control; the T/C (dose: 25.0 mg/kg/injection, schedule: Q04DX003 (ip), vehicle: saline with Tween-80) was 107 % of control; the T/C (dose: 50.0 mg/kg/injection, schedule: Q04DX003 (ip), vehicle: saline with Tween-80) was 100 % of control; the T/C under setting [11] was 111 % of control.

Regarding `CC1OC(C2COC(C)(C)O2)C2OCOC12` (stereo not drawn), the T/C is, setting by setting: (dose: 100.0 mg/kg/injection, schedule: Q04DX002 (ip), vehicle: saline with Tween-80) 100 % of control; (dose: 200.0 mg/kg/injection, schedule: Q04DX002 (ip), vehicle: saline with Tween-80) 100 % of control; (dose: 400.0 mg/kg/injection, schedule: Q04DX002 (ip), vehicle: saline with Tween-80) 100 % of control.

For `CN(C)Cc1c(C=C(c2ccccc2)c2ccccc2)ccc2ccccc12`, the T/C (dose: 50.0 mg/kg/injection, schedule: Q01DX001 (ip), vehicle: carboxymethylcellulose (CMC)) was 94 % of control; the T/C under setting [15] is 96 % of control; the T/C under setting [16] was 94 % of control; the T/C under setting [17] was 96 % of control.

For `NC(=O)C(Cl)CCl` (stereo not drawn), the T/C was 104 % of control (dose: 50.0 mg/kg/injection, schedule: Q04DX002 (ip), vehicle: Klucel (hydroxypropylcellulose) (HPC)); 101 % of control (dose: 100.0 mg/kg/injection, schedule: Q04DX002 (ip), vehicle: Klucel (hydroxypropylcellulose) (HPC)); 104 % of control (dose: 200.0 mg/kg/injection, schedule: Q04DX002 (ip), vehicle: Klucel (hydroxypropylcellulose) (HPC)).

Values taken from PubChem BioAssay AID248 (DTP/NCI, 2004).
